Results: US20130090516A1, “Local Anesthesia By Magnet-Directed Concentration of Nanoparticle Conjugated Anesthetic” (CARNEGIE MELLON UNIVERSITY, priority 2011, published 2013)

Experiments:
Sprague Dawley rats [1] = assay: Hargreaves test of thermal nociception (paw withdrawal latency); format: in vivo, rat; details: subcutaneous 0.8 ml of 0.1% or 0.2%, six animals each
Excerpt: Sprague Dawley rats (300-350 grams) were used to assess the efficacy of formulations of ropivacaine generated as described above. The Hargreaves test of thermal nociception evaluates the level of sensory anesthesia of the plantar surface of the paw and was used to assess pain sensation here. Animals were placed in individual Plexiglas testing chambers in a modified Hargreaves box. Hargreaves et al., 1988, which is hereby incorporated by reference. A very low power idle intensity beam was used to initially target the plantar surface of the hind paw. Once appropriately placed, the beam was switched to a higher power active intensity (approximately 50% of maximum intensity). This causes radiant heat stimulation of the plantar hind paw and allows for a measure of the latency of the rat's paw withdrawal threshold.
Before each experiment, baseline nociception testing was performed on the animals. In all experiments, the left paws were used as controls and the right paws were utilized in the treatment condition. Rats were anesthetized using the general anesthetic isoflurane, awaked after a designated time, and the paws were tested after their returned to baseline wakefulness (approximately 5-10 minutes). Each hind paw was tested at 5 minute intervals for 40 minutes and at 10-minute intervals for 120 minutes. […]

Sprague Dawley rats [2] = assay: Acute toxicity after intravenous injection (cardiopulmonary arrest as evidence of toxicity); format: in vivo, rat; details: 1.2 mg intravenous
Description: Conjugated nanoparticles so prepared may be injected intravenously into a subject. […] The efficacy as a local anesthetic when concentrated with an external magnet was assessed in the following experiment.
Specifically, acute toxicity studies of unconjugated magnetic nanoparticles, assay of plasma concentration of ropivacaine, and measurement of tissue concentration of ropivacaine at the ankle were performed.
Acute toxicity studies of unconjugated magnetic nanoparticles were conducted in 10 animals. Cardiopulmonary arrest was taken as evidence of toxicity.
(§1) Each group included 3 animals. A volume of 0.3 ml of blood was drawn before injection, and at 15, 30, 60, 120, 180, 240 and 300 minutes after the injections. […] The animals in groups Bplasma and Cplasma had 14 mg of ropivacaine complexed with MNPs. In group Cplasma, the magnet assembly used in Example 2 was placed around the right ankle before injection and removed after 30 minutes.

[3] = Plasma concentration / pharmacokinetics of ropivacaine after intravenous administration; format: in vivo, rat
Description: For the assessment of plasma concentration of ropivacaine, the following groups were studied:
as §1
After intravenous administration, the plasma concentration of ropivacaine declined in an exponential manner as expected, in all three groups. Group Aplasma cannot be directly compared to the other two groups because the close in group Aplasma was 14 times lower. Between groups Bplasma and Cplasma, there were no differences in any parameter. Data are presented as mean (SD). Lambda-Z is defined as terminal elimination rate constant. AUC is the area under the concentration curve. Vd is the volume of distribution. Cl is clearance rate. N/A means not applicable. Listed probability values are established through t-tests between groups B and C.

[4] = rat, in vivo
Description: (§2) The experiments were done after placing the animals under isoflurane anesthesia and spontaneous ventilation. A volume of 2 milliliters of the injectate was given at 5-15° C. intravenously via a tail vein cannula over four to five minutes. A jugular catheter was inserted where necessary for blood withdrawals.
(§3) A separate set of two animals for each condition were used to assess ropivacaine concentration in the ankle.
(§4) In all groups, 0.3 ml of blood was withdrawn at baseline, at 15 minutes, and at 30 minutes for plasma ropivacaine determination. At 30 minutes, skin and subcutaneous tissue all around the right ankle were isolated for ropivacaine analysis. Analysis was performed by HPLC-MS-MS.
Again, data are presented as mean (SD)

[5] = Ropivacaine concentration in ankle tissue and plasma at 30 minutes (HPLC-MS-MS); details: Group A, ropivacaine only, 0.5 h
Description: as §2, §3, §4
Again, data are presented as mean (SD)

CCCN1CCCC[C@H]1C(=O)Nc1c(C)cccc1C [Plain ropiv, ropivacaine]
traditional nerve block (ankle block) (Sprague Dawley rats [1]): achieved
lethality (Sprague Dawley rats [2]): lethal
Cmax ([3]; Group A, 1 mg ropivacaine iv, mean): 863.3 ng/mL
Cmax (dose normalized) ([3]; rat, in vivo, iv): 863.3 ng/mL/mg
AUC (0-inf) ([3]; rat, in vivo, iv, 1 mg): 875 ng·h/mL
Cl (clearance rate) ([3]; rat, in vivo, iv, 1 mg): 1462 mL/h
Half life ([3]; rat, in vivo, iv, 1 mg): 97.8 min
Tmax ([3]; rat, in vivo, iv, 1 mg): 15 min
Vd (volume of distribution) ([3]; rat, in vivo, iv, 1 mg): 3180 mL
factor by which absolute tissue drug concentration was higher than groups B and C [4]: 7-10
Ratio of tissue to plasma concentration [5]: 3.12
